Read-outs that look alike come from different tables or passages of the source.
Tests used:
[1] = tested on: isolates identified as having novel antibiotic resistance; assay: MIC against CDC novel antibiotic resistance panel (n = 11); type: cell-based
Experimental: MIC values were determined using the methodology described above, i.e., the standard broth microdilution reference method defined by CLSI.
See wwwn.cdc.gov/ARIsolateBank/Panel/PanelDetail?ID=10.

[2] = tested on: eight different strains of five species of Gram-negative bacteria; assay: MBEC in eight strains of five species of Gram-negative bacteria; type: cell-based; conditions: for MBEC: 24 h biofilm in LB, 16 h treatment
Experimental: Determination of Minimal Biofilm Eradicating Concentrations (MBEC). […] The OD600 of extracted crystal violet was determined. The MBEC value of each sample was determined as the minimum drug concentration required to remove >95% of biofilm biomass as assessed by crystal violet quantitation (in comparison to untreated controls).
MBEC values were likewise determined for Chp2, Chp2-M1, and Chp10-M1 in eight different strains of five species of Gram-negative bacteria. […] The films were then washed and stained with crystal violet to visualize the MBEC.

[3] = tested on: P. aeruginosa strain CFS-1292; assay: LIVE/DEAD stain microscopy in 100% human serum; type: cell-based, Pseudomonas aeruginosa; conditions: 15 minutes, 10 μg/mL
Text: Samples were visualized by BF and fluorescence microscopy (10 ms exposure). […] was used to label live cells, and PI was used to label damaged and dead cells.

[4] = tested on: P. aeruginosa strain CFS-1292; assay: Time-kill assay in CAA with 2.5% human serum; type: cell-based, Pseudomonas aeruginosa; conditions: for Loss of bacterial viability: CAA with […] human serum, vs untreated controls
Experimental: Time-Kill Assay of Chp Peptide Activity. […] Exponential phase bacteria were then diluted 1:100 into CAA/HuS and peptide was added at a final concentration of either 1 or 10 μg/mL. Control cultures were included with no peptide added (i.e., buffer control).

[5] = tested on: P. aeruginosa strain PAO1; assay: MIC against PAO1 in Mueller-Hinton broth with 50% human plasma or human serum; type: cell-based, Pseudomonas aeruginosa
[6] = tested on: P. aeruginosa strain CFS 1292; type: cell-based, Pseudomonas aeruginosa
[7] = novel antibiotic resistance panel

MRLKMARRRYRLPRRRSRRLFSRTALRMHPRNRLRRIMRGGIRF [Chp2]
multi-log fold decreases: bacterial viability after treatment (time-kill) ([4]; 1, 3 and 24 hours, 1 μg/mL and 10 μg/mL, CAA + […] human serum)
no significant change: change in MIC after 21 days ([6]; serial passage)
>3.5 log10 CFU/mL: Loss of bacterial viability ([4]; 1 μg/mL, 1 hour) | Loss of bacterial viability ([4]; 10 μg/mL, 1 hour)
reduction of live bacteria: killing of P. aeruginosa, Live/Dead Cell Viability Kit [3]
0.5 µg/mL: MIC50 [1, 7] | MBEC ([2]; A. baumanni (ATCC BAA-747))
0.25 µg/mL: MBEC ([2]; P. aeruginosa (ATCC 27853)) | Serial Passage MIC Day 0 ([6]; 21-day study, Day 0, duplicates (1),(2)) | Serial Passage MIC Day 21 ([6]; 21-day study, Day 21, duplicates (1),(2)) | Serial Passage MIC Day 0 (untreated) ([6]; Day 0, MIC of agent on untreated control culture) | Serial Passage MIC Day 0 ([6]; Day 0, cultures passaged with agent, duplicates (1),(2)) | Serial Passage MIC Day 1 (untreated) ([6]; Day 1, MIC of agent on untreated control culture) | Serial Passage MIC Day 1 ([6]; Day 1, cultures passaged with agent, duplicates (1),(2)) | Serial Passage MIC Day 2 (untreated) ([6]; Day 2, MIC of agent on untreated control culture) | Serial Passage MIC Day 2 ([6]; Day 2, cultures passaged with agent, duplicates (1),(2)) | Serial Passage MIC Day 3 (untreated) ([6]; Day 3, MIC of agent on untreated control culture) | Serial Passage MIC Day 3 ([6]; Day 3, cultures passaged with agent, duplicates (1),(2)) | Serial Passage MIC Day 4 (untreated) ([6]; Day 4, MIC of agent on untreated control culture) | Serial Passage MIC Day 4 ([6]; Day 4, cultures passaged with agent, duplicates (1),(2)) | Serial Passage MIC Day 5 (untreated) ([6]; Day 5, MIC of agent on untreated control culture) | Serial Passage MIC Day 5 ([6]; Day 5, cultures passaged with agent, duplicates (1),(2)) | Serial Passage MIC Day 6 (untreated) ([6]; Day 6, MIC of agent on untreated control culture) | Serial Passage MIC Day 6 ([6]; Day 6, cultures passaged with agent, duplicates (1),(2)) | Serial Passage MIC Day 7 (untreated) ([6]; Day 7, MIC of agent on untreated control culture) | Serial Passage MIC Day 7 ([6]; Day 7, cultures passaged with agent, duplicates (1),(2)) | Serial Passage MIC Day 8 (untreated) ([6]; Day 8, MIC of agent on untreated control culture) | Serial Passage MIC Day 8 ([6]; Day 8, cultures passaged with agent, duplicates (1),(2)) | Serial Passage MIC Day 9 (untreated) ([6]; Day 9, MIC of agent on untreated control culture) | Serial Passage MIC Day 9 ([6]; Day 9, cultures passaged with agent, duplicates (1),(2))
1 µg/mL: MIC ([1]; Bank No. 0538, Escherichia coli) | MIC ([1]; Bank No. 0637, Citrobacter freundi) | MIC90 [1, 7]
potent antibiofilm activity: antibiofilm activity (MBEC) ([2]; biofilms formed 24 hours in LB, treated 16 hours)
>4.8 log10 CFU/mL: Loss of bacterial viability ([4]; 1 μg/mL, 24 hours) | Loss of bacterial viability ([4]; 10 μg/mL, 24 hours)
4 µg/mL: MBEC ([2]; E. coli (ATCC 35329)) | MBEC ([2]; K. pneumoniae (ATCC 700603))
2 µg/mL: MBEC ([2]; E. cloacae (CCUG 63317)) | MBEC ([2]; E. coli (ATCC 25922)) | MBEC ([2]; E. coli (EC2)) | MBEC ([2]; K. pneumoniae (KP1)) | MIC [5] | Minimal inhibitory concentration, Human Serum [5]
>4 log10 CFU/mL: Loss of bacterial viability ([4]; 1 μg/mL, 3 hours) | Loss of bacterial viability ([4]; 10 μg/mL, 3 hours)
